Measured values from PubChem BioAssay AID1963963 (Molecular Pharmacology Branch, DTP, NCI, 2024).
pIC50: −log10 of the molar value.

System: 958667-338-R-J2-PDC tumor spheroids viability
Assay: Anticancer human tumor 958667-338-R-J2-PDC patient-derived colon adenocarcinoma cell line growth inhibition [PI3K]
Settings: spheroids with HUVEC and MSC; for pIC50: curve of first compound; for viability, T/C: stronger effect = lower value
Excerpt: Combinatorial screen of targeted agents with the PI3K inhibitors inavolisib, alpelisib, duvelisib, and copanlisib in multi-cell type tumor spheroids
A high-throughput screen of multi-cell type tumor spheroids was designed to identify active combinations of targeted small molecules and PI3K pathway inhibitors. Complex spheroids include a stromal component modeled by human endothelial cells (HUVEC) and fibroblasts modeled by human mesenchymal stem cells (MSCs). The concentration ranges selected for each drug and investigational agent were based upon clinically achievable concentrations if the clinical Cmax of the agent was known.
Compounds. The drugs and investigational agents: inavolisib (NSC800729), alpelisib (NSC765974), duvelisib (NSC772469), copanlisib (NSC816437), ipatasertib (NSC767898), afuresertib (NSC778305), talazoparib (NSC767125), sapanisertib (NSC764658), selumetinib (NSC741078), tovorafenib (DAY101, NSC766906), vemurafenib (NSC761431), ravoxertinib (NSC781343), sotorasib (NSC818433), MRTX1133 (NSC 836407), abemaciclib (NSC 768073), palbociclib (NSC758247), venetoclax (NSC 766270), SY5609 (NSC837396), enzalutamide (NSC755605), and darolutamide (NSC825331), were obtained from the National Cancer Institute (NCI) Developmental Therapeutics Program Chemical Repository. The FDA-approved anticancer drug set is available from the NCI Developmental Therapeutics Program. […] The stock solutions were prepared in dimethyl sulfoxide (DMSO, Sigma-Aldrich, St. Louis, MO, cat. D2650) at 800-fold the tested concentration and stored at -70 degrees C prior to their use. All drugs and investigational agents were tested over a range starting from a high concentration at or near the clinical Cmax and decreasing in half-log increments. If the clinical Cmax for an agent had not been determined, the highest concentration tested was 10 microM.
Cell Culture. All cells were maintained in an incubator at 37 degrees C and 5% CO2 with 95% humidity. The PDC lines were cultured according to standard operating procedures established by the NCI PDMR (https://pdmr.cancer.gov/sops/default.htm). All PDCs were thawed and cultured in Matrigel-coated flasks prepared with a working solution of 1X Ham's F-12 nutrient mix, without supplementation (Invitrogen, Waltham, MA, cat. 11765054), 100 U/mL penicillin-streptomycin (Invitrogen, cat. 15140122), and 2.5% Matrigel (Corning Inc., Corning, NY, cat. 354248) for the first three passages. The 354836-022-R-J1-PDC, 475296-252-R-J1-PDC, and 997726-040-R-J2-PDC lines were cultured in 6A media, which includes advanced DMEM/F-12 (Thermo Fisher Scientific, cat. 12634028), 10 mM HEPES (Thermo Fisher Scientific, cat. 15630080), 1X GlutaMAX supplement (Thermo Fisher Scientific, cat. 35050061), 0.1 mg/mL primocin (InvivoGen, San Diego, CA, cat. ant-pm-2), 10% defined fetal bovine serum, heat inactivated (HyClone Laboratories Inc., Logan, UT, cat. SH30070.03HI), 50% L-WRN conditioned media (ATCC, cat. CRL-3276), 1.25 mM N-Acetyl-L-cysteine (Sigma-Aldrich, cat. A9165), 10 mM nicotinamide (Sigma-Aldrich, cat. N0636), 1X B-27 supplement (Thermo Fisher Scientific, cat. 17504044), 1X N-2 supplement (Thermo Fisher Scientific, cat. 17502048), and 10 microM Y-27632 dihydrochloride (Tocris Bioscience, Bristol, United Kingdom, cat. 1254). The 624824-186-R-J2-PDC line was cultured in 6C/Colon 1B media, which includes all 6A media components plus 50 ng/mL human EGF recombinant protein (Thermo Fisher Scientific, cat. PHG0311). […]

[1] = second compound 0.00316 µM, first compound 0.0316 µM
[2] = second compound 0.00316 µM, first compound 0.1 µM
[3] = second compound 0.01 µM, first compound 0.0316 µM
[4] = second compound 0.01 µM, first compound 0.1 µM
[5] = second compound 0.0316 µM, first compound 0.0316 µM
[6] = second compound 0.0316 µM, first compound 0.1 µM
[7] = second compound 0.1 µM, first compound 0.0316 µM
[8] = second compound 0.1 µM, first compound 0.1 µM
[9] = second compound 0.316 µM, first compound 0.0316 µM
[10] = second compound 0.316 µM, first compound 0.1 µM
[11] = second compound 1 µM, first compound 0.0316 µM
[12] = second compound 1 µM, first compound 0.1 µM
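Also: spheroids exposed to compounds for seven days before readout.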

With `CC(C)n1nc(-c2ccc3oc(N)nc3c2)c2c(N)ncnc21` + CC(Nc1ccc2c(c1)OCCn1cc(N3C(=O)OCC3C(F)F)nc1-2)C(N)=O the pIC50 (second compound 0.00316 µM) was 7.19, the pIC50 (second compound 0.01 µM) was 7.19 and the pIC50 (second compound 0.0316 µM) was 7.36. The pIC50 (second compound 0.1 µM) was 7.28, the pIC50 (second compound 0.316 µM) was 7.54 and the pIC50 (second compound 1 µM) was 8.57. The viability, T/C (second compound 0.00316 µM, first compound 0.000316 µM) was 103%, the viability, T/C (second compound 0.00316 µM, first compound 0.001 µM) was 120% and the viability, T/C (second compound 0.00316 µM, first compound 0.00316 µM) was 92.5%. For the same molecule, the viability, T/C (second compound 0.00316 µM, first compound 0.01 µM) was 91.7%, the viability, T/C [1] was 80.8% and the viability, T/C [2] was 33.3%. The viability, T/C (second compound 0.01 µM, first compound 0.000316 µM) was 109%, the viability, T/C (second compound 0.01 µM, first compound 0.001 µM) was 109% and the viability, T/C (second compound 0.01 µM, first compound 0.00316 µM) was 95.9%. The viability, T/C (second compound 0.01 µM, first compound 0.01 µM) was 94.7%, the viability, T/C [3] was 71% and the viability, T/C [4] was 37.1%. For the same molecule, the viability, T/C (second compound 0.0316 µM, first compound 0.000316 µM) was 99.5%, the viability, T/C (second compound 0.0316 µM, first compound 0.001 µM) was 74.3% and the viability, T/C (second compound 0.0316 µM, first compound 0.00316 µM) was 81.5%. For the same molecule, the viability, T/C (second compound 0.0316 µM, first compound 0.01 µM) was 65%, the viability, T/C [5] was 64.5% and the viability, T/C [6] was 32.9%. It also gave a viability, T/C (second compound 0.1 µM, first compound 0.000316 µM) of 79.3%, a viability, T/C (second compound 0.1 µM, first compound 0.001 µM) of 86.9% and a viability, T/C (second compound 0.1 µM, first compound 0.00316 µM) of 85.9%. It also gave a viability, T/C (second compound 0.1 µM, first compound 0.01 µM) of 75.3%, a viability, T/C [7] of 68% and a viability, T/C [8] of 28.7%. It also gave a viability, T/C (second compound 0.316 µM, first compound 0.000316 µM) of 58.2%, a viability, T/C (second compound 0.316 µM, first compound 0.001 µM) of 59.8% and a viability, T/C (second compound 0.316 µM, first compound 0.00316 µM) of 66.2%. The viability, T/C (second compound 0.316 µM, first compound 0.01 µM) was 65.1%, the viability, T/C [9] was 48.9% and the viability, T/C [10] was 21.8%. The viability, T/C (second compound 1 µM, first compound 0.000316 µM) was 65.7%, the viability, T/C (second compound 1 µM, first compound 0.001 µM) was 53.8% and the viability, T/C (second compound 1 µM, first compound 0.00316 µM) was 45.6%. The viability, T/C (second compound 1 µM, first compound 0.01 µM) was 44.3%, the viability, T/C [11] was 35.4% and the viability, T/C [12] was 23.5%.
In the case of `CCCS(=O)(=O)Nc1ccc(F)c(C(=O)c2c[nH]c3ncc(-c4ccc(Cl)cc4)cc23)c1F` + CC(Nc1ccc2c(c1)OCCn1cc(N3C(=O)OCC3C(F)F)nc1-2)C(N)=O, the pIC50 (second compound 0.00316 µM) was 5.21, the pIC50 (second compound 0.01 µM) was 5.22 and the pIC50 (second compound 0.0316 µM) was 5.30. The pIC50 (second compound 0.1 µM) was 5.32, the pIC50 (second compound 0.316 µM) was 5.32 and the pIC50 (second compound 1 µM) was 5.39. For the same molecule, the viability, T/C [1] was 99%, the viability, T/C [2] was 105% and the viability, T/C (second compound 0.00316 µM, first compound 0.316 µM) was 106%. For the same molecule, the viability, T/C (second compound 0.00316 µM, first compound 1 µM) was 106%, the viability, T/C (second compound 0.00316 µM, first compound 3.16 µM) was 112% and the viability, T/C (second compound 0.00316 µM, first compound 10 µM) was 8.08%. For the same molecule, the viability, T/C [3] was 105%, the viability, T/C [4] was 111% and the viability, T/C (second compound 0.01 µM, first compound 0.316 µM) was 83.7%. It also gave a viability, T/C (second compound 0.01 µM, first compound 1 µM) of 99.9%, a viability, T/C (second compound 0.01 µM, first compound 3.16 µM) of 130% and a viability, T/C (second compound 0.01 µM, first compound 10 µM) of 5.91%. It also gave a viability, T/C [5] of 104%, a viability, T/C [6] of 109% and a viability, T/C (second compound 0.0316 µM, first compound 0.316 µM) of 104%. The viability, T/C (second compound 0.0316 µM, first compound 1 µM) was 106%, the viability, T/C (second compound 0.0316 µM, first compound 3.16 µM) was 76.7% and the viability, T/C (second compound 0.0316 µM, first compound 10 µM) was 9.56%. It also gave a viability, T/C [7] of 78.3%, a viability, T/C [8] of 74.9% and a viability, T/C (second compound 0.1 µM, first compound 0.316 µM) of 72.3%. For the same molecule, the viability, T/C (second compound 0.1 µM, first compound 1 µM) was 67.5%, the viability, T/C (second compound 0.1 µM, first compound 3.16 µM) was 81.1% and the viability, T/C (second compound 0.1 µM, first compound 10 µM) was 5.14%. The viability, T/C [9] was 72.5%, the viability, T/C [10] was 65.5% and the viability, T/C (second compound 0.316 µM, first compound 0.316 µM) was 61.5%. For the same molecule, the viability, T/C (second compound 0.316 µM, first compound 1 µM) was 79.1%, the viability, T/C (second compound 0.316 µM, first compound 3.16 µM) was 79.7% and the viability, T/C (second compound 0.316 µM, first compound 10 µM) was 12.3%. The viability, T/C [11] was 57.8%, the viability, T/C [12] was 61% and the viability, T/C (second compound 1 µM, first compound 0.316 µM) was 58%. The viability, T/C (second compound 1 µM, first compound 1 µM) was 68.9%, the viability, T/C (second compound 1 µM, first compound 3.16 µM) was 60.5% and the viability, T/C (second compound 1 µM, first compound 10 µM) was 10.8%.
